Measured values reported in ChEMBL document CHEMBL1201862, “PubChem BioAssay data set” (2004).
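Tested at 5 concentrations; 48 h exposure; 96-well plates; endpoints linearly interpolated, else capped at highest concentration. GI50 marks 50% less growth.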 Calls of active or inactive are those of the source. Rule as the data show it: active = GI50 up to about 1.1 µM and inactive = higher.

What was measured:
Assay in all cases: NCI anticancer screen, dose series, 48 h
HT-29 = system: HT-29
CCRF-CEM = system: CCRF-CEM
SK-MEL-2 = system: SK-MEL-2
SF-268 = system: SF-268
SK-OV-3 = system: SK-OV-3
SF-539 = system: SF-539
SK-MEL-5 = system: SK-MEL-5
NCI-H23 = system: NCI-H23
HOP-62 = system: HOP-62
RPMI-8226 = system: RPMI-8226
UACC-62 = system: UACC-62
HCT-15 = system: HCT-15
HOP-92 = system: HOP-92
LOX IMVI = system: LOX IMVI
KM12 = system: KM12
M14 = system: M14
SR = system: SR

| SMILES | GI50 (HT-29) | GI50 (CCRF-CEM) | GI50 (SK-MEL-2) | GI50 (SF-268) | GI50 (SK-OV-3) | GI50 (SF-539) | GI50 (SK-MEL-5) | GI50 (NCI-H23) | GI50 (HOP-62) | GI50 (RPMI-8226) | GI50 (UACC-62) | GI50 (HCT-15) [µM] | GI50 (HOP-92) | GI50 (LOX IMVI) | GI50 (KM12) | GI50 (M14) | GI50 (SR) |
| --- | --- | --- | --- | --- | --- | --- | --- | --- | --- | --- | --- | --- | --- | --- | --- | --- | --- |
| O/N=C1/C(=C/c2ccc(Oc3ccccc3)cc2)CCCC1C(NO)c1ccc(Oc2ccccc2)cc1 (configuration not stated) | 16.1 µM (inactive) | 12.2 µM (inactive) | 45.6 µM (inactive) | 37.2 µM (inactive) | > 100 µM (inactive) | 40 µM (inactive) | 13.4 µM (inactive) | 16.9 µM (inactive) | > 100 µM (inactive) | 18.2 µM (inactive) | 43.9 µM (inactive) | 47 | 17.9 µM (inactive) | 13.6 µM (inactive) | 22.3 µM (inactive) | 40.6 µM (inactive) | – |
| CCS/C(=N\c1ccccc1)SC | > 100 µM (inactive) | > 100 µM (inactive) | > 100 µM (inactive) | > 100 µM (inactive) | > 100 µM (inactive) | > 100 µM (inactive) | > 100 µM (inactive) | > 100 µM (inactive) | > 100 µM (inactive) | > 100 µM (inactive) | > 100 µM (inactive) | > 100 | > 100 µM (inactive) | > 100 µM (inactive) | > 100 µM (inactive) | > 100 µM (inactive) | – |
| COc1cccc2ccc(C(=O)c3ccccc3)nc12 | – | 79.4 µM (inactive) | > 100 µM (inactive) | > 100 µM (inactive) | – | > 100 µM (inactive) | > 100 µM (inactive) | > 100 µM (inactive) | > 100 µM (inactive) | > 100 µM (inactive) | > 100 µM (inactive) | > 100 | – | > 100 µM (inactive) | > 100 µM (inactive) | > 100 µM (inactive) | > 100 µM (inactive) |
| CCCN(CCC)C1=Nc2ccccc2-n2cnnc2C1 | > 100 µM (inactive) | > 100 µM (inactive) | > 100 µM (inactive) | > 100 µM (inactive) | – | > 100 µM (inactive) | > 100 µM (inactive) | > 100 µM (inactive) | > 100 µM (inactive) | > 100 µM (inactive) | > 100 µM (inactive) | > 100 | – | > 100 µM (inactive) | > 100 µM (inactive) | > 100 µM (inactive) | > 100 µM (inactive) |
| CC(=O)NCc1c(C(N)=O)ncn1Cc1ccccc1 | > 100 µM (inactive) | > 100 µM (inactive) | – | – | > 100 µM (inactive) | > 100 µM (inactive) | > 100 µM (inactive) | > 100 µM (inactive) | > 100 µM (inactive) | > 100 µM (inactive) | > 100 µM (inactive) | > 100 | > 100 µM (inactive) | > 100 µM (inactive) | – | > 100 µM (inactive) | – |
| COC(=O)C[S+]([O-])c1ccccc1 (configuration not stated) | 36.6 µM (inactive) | 7.67 µM (inactive) | 35.6 µM (inactive) | 14 µM (inactive) | 60.7 µM (inactive) | 20.9 µM (inactive) | 25.4 µM (inactive) | 35 µM (inactive) | 32.6 µM (inactive) | 21.9 µM (inactive) | 29.2 µM (inactive) | 28.7 | 17.6 µM (inactive) | 21.8 µM (inactive) | 28.3 µM (inactive) | 37.3 µM (inactive) | – |
| O=C1c2ccccc2C(=O)N1C/C=N/NS(=O)(=O)c1ccc2ccccc2c1 | > 100 µM (inactive) | > 100 µM (inactive) | > 100 µM (inactive) | – | > 100 µM (inactive) | > 100 µM (inactive) | > 100 µM (inactive) | > 100 µM (inactive) | > 100 µM (inactive) | > 100 µM (inactive) | > 100 µM (inactive) | > 100 | – | – | > 100 µM (inactive) | > 100 µM (inactive) | > 100 µM (inactive) |
| O=C(NN1C(=O)C(Cl)C1c1ccc(O)cc1)c1ccccc1O (configuration not stated) | 18.4 µM (inactive) | 7.11 µM (inactive) | 19.9 µM (inactive) | 18.8 µM (inactive) | 25.8 µM (inactive) | 23.4 µM (inactive) | 14.6 µM (inactive) | 22.2 µM (inactive) | – | – | 17.2 µM (inactive) | 14.6 | – | 16.7 µM (inactive) | 14 µM (inactive) | 22.2 µM (inactive) | – |
